# Results: ChEMBL document CHEMBL2040771, “Discovery of a potent inhibitor of anaplastic lymphoma kinase with in vivo antitumor activity” (ACS Med Chem Lett, 2010)
# Activity calls are given as the source filed them. No cut-off for these calls is given here.
# Tests used:
# [1] = Growth inhibition of ALK-positive human SUP-M2 cells by MTS assay; format: functional, cell-based
# [2] = Plasma concentration in SCID mouse xenografted with ALK-positive human SUP-M2 cells at 55 mg/kg, po bid for 12 days; format: ADME, organism-based; set-up: dose 55 mg/kg, route oral
# [3] = target: Protein-tyrosine kinase 6 (Homo sapiens) (UniProt Q13882); assay: Inhibition of BRK at 0.1 uM
# [4] = target: Platelet-derived growth factor receptor beta (Homo sapiens) (UniProt P09619); assay: Inhibition of PDGFRB at 1 uM
# [5] = AUC in SCID mouse at 1 mg/kg, iv; format: ADME, organism-based; set-up: dose 1 mg/kg, route intravenous; settings: plasma
# Mus musculus [6] = assay: Toxicity in SCID mouse xenografted with human SUP-M2 cells at 10 mg/kg, po BID for 12 days; format: organism-based; set-up: dose 10 mg/kg, route oral; settings: in vivo, 288 h
# [7] = Plasma clearance in SCID mouse at 1 mg/kg, iv by LC/MS/MS analysis; format: ADME, organism-based; set-up: dose 1 mg/kg, route intravenous
# [8] = target: Serine/threonine-protein kinase 32B (Homo sapiens) (UniProt Q9NY57); assay: Inhibition of YANK2 at 1 uM
# [9] = target: Dual specificity mitogen-activated protein kinase kinase 4 (Homo sapiens) (UniProt P45985); assay: Inhibition of MEK4 at 0.1 uM
# [10] = target: Serine/threonine-protein kinase 3 (Homo sapiens) (UniProt Q13188); assay: Inhibition of MST2 at 0.1 uM
# [11] = target: Epidermal growth factor receptor (Homo sapiens) (UniProt P00533); assay: Inhibition of EGFR at 1 uM
# Mus musculus [12] = assay: Toxicity in SCID mouse xenografted with human SUP-M2 cells assessed as weight loss at 10 mg/kg, po BID for 12 days; format: organism-based; set-up: dose 10 mg/kg, route oral; settings: in vivo, 288 h
# [13] = system: Epidermal growth factor receptor (Homo sapiens), P00533 [L861Q]; assay: Inhibition of EGFR L861Q mutant at 0.1 uM; format: protein assay
# [14] = Half life in SCID mouse at 1 mg/kg, iv; format: ADME, organism-based; set-up: dose 1 mg/kg, route intravenous; settings: in vivo
# [15] = target: Cyclin-G-associated kinase (Homo sapiens) (UniProt O14976); assay: Inhibition of GAK at 0.1 uM
# K562 = assay: Induction apoptosis in ALK-negative human K562 cells assessed as activation of caspase 3/7 by fluorometric assay; format: functional, cell-based
# [16] = Plasma concentration in SCID mouse xenografted with ALK-positive human SUP-M2 cells at 30 mg/kg, po bid for 12 days; format: ADME, organism-based; set-up: dose 30 mg/kg, route oral
# [17] = target: Serine/threonine-protein kinase 33 (Homo sapiens) (UniProt Q9BYT3); assay: Inhibition of STK33 at 0.1 uM
# Insulin receptor = Insulin receptor (Homo sapiens, UniProt P06213); assay: Inhibition of insulin receptor
# Canis familiaris = assay: Clearance with respect to hepatic blood flow in beagle dog at 1 mg/kg, iv; format: ADME, organism-based, Canis lupus familiaris, Liver; set-up: dose 1 mg/kg, route intravenous; settings: in vivo
# [18] = Tmax in beagle dog at 10 mg/kg, po; format: ADME, organism-based, Canis lupus familiaris; set-up: dose 10 mg/kg, route oral; settings: in vivo
# [19] = target: Platelet-derived growth factor receptor beta (Homo sapiens) (UniProt P09619); assay: Inhibition of PDGFRB at 0.1 uM
# [20] = Drug uptake in tumor lysates in SCID mouse xenografted with ALK-positive human SUP-M2 cells at 55 mg/kg, po bid for 12 days; format: ADME, organism-based, Neoplasm; set-up: dose 55 mg/kg, route oral; settings: read-out: Drug uptake
# [21] = target: Serine/threonine-protein kinase 3 (Homo sapiens) (UniProt Q13188); assay: Inhibition of MST2 at 1 uM
# [22] = system: Receptor-type tyrosine-protein kinase FLT3 (Homo sapiens), P36888 [N841I]; assay: Inhibition of FLT3 N841I mutant at 0.1 uM
# [23] = target: Mitogen-activated protein kinase 8 (Homo sapiens) (UniProt P45983); assay: Inhibition of JNK1 at 0.1 uM
# [24] = target: NUAK family SNF1-like kinase 1 (Homo sapiens) (UniProt O60285); assay: Inhibition of ARK5 at 1 uM
# [25] = Volume of distribution in beagle dog at 1 mg/kg, iv; format: ADME, organism-based, Canis lupus familiaris; set-up: dose 1 mg/kg, route intravenous; settings: in vivo
# [26] = Volume of distribution in Sprague-Dawley rat at 1 mg/kg, iv; format: ADME, organism-based; set-up: dose 1 mg/kg, route intravenous; settings: in vivo
# [27] = target: Ribosomal protein S6 kinase alpha-2 (Homo sapiens) (UniProt Q15349); assay: Inhibition of RPS6KA2 at 0.1 uM
# [28] = target: Ribosomal protein S6 kinase alpha-1 (Homo sapiens) (UniProt Q15418); assay: Inhibition of RPS6KA1 at 0.1 uM
# [29] = Tmax in SCID mouse at 10 mg/kg, po; format: ADME, organism-based; set-up: dose 10 mg/kg, route oral; settings: in vivo
# [30] = target: T1, ALK tyrosine kinase receptor (Homo sapiens, UniProt Q9UM73); assay: Inhibition of NPM-ALK autophosphorylation in human KARPAS299 cells; format: cell-based; settings: karpas-299
# Target sequence in this assay (Q9UM73 19-1620 limits assumed): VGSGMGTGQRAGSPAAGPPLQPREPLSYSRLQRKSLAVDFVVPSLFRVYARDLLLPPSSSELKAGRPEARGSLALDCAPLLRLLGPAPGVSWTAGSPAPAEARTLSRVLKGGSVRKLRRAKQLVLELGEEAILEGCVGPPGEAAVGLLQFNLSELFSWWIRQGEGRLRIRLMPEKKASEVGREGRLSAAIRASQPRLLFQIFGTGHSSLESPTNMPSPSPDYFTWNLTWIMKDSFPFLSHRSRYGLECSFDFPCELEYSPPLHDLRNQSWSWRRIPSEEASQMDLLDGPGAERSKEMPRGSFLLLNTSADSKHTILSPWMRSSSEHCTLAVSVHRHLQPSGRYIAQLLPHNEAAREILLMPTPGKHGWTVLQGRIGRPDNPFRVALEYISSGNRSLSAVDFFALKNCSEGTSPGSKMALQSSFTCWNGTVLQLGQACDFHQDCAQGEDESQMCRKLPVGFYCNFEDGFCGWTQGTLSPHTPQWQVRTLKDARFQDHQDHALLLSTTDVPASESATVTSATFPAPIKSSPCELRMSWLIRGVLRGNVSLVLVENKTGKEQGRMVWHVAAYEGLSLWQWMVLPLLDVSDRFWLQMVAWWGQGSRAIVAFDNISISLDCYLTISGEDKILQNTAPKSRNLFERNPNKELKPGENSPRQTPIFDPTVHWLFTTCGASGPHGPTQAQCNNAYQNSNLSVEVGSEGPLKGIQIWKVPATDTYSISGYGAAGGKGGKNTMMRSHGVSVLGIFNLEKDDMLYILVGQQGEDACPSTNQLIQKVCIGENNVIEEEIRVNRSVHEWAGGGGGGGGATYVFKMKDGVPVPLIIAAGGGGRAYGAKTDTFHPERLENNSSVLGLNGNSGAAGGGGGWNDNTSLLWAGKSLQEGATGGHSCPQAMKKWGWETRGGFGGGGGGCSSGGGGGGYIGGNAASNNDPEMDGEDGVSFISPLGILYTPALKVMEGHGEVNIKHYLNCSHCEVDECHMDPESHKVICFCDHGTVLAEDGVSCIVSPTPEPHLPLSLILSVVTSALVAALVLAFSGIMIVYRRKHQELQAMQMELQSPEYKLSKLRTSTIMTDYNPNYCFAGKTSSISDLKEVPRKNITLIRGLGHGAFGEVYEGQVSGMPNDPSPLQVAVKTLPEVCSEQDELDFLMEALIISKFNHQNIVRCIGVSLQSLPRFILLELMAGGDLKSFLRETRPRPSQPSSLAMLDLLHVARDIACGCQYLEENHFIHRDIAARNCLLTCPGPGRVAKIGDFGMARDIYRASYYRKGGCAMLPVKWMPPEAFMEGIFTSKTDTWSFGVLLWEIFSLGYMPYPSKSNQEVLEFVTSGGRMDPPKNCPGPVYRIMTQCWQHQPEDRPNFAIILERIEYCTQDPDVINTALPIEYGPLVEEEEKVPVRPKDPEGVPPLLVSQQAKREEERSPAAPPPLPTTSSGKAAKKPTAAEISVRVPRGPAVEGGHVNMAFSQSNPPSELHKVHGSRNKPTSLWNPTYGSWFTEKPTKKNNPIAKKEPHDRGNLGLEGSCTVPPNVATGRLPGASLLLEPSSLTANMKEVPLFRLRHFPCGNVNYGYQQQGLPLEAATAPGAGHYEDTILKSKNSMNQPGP
# [31] = target: T1, ALK tyrosine kinase receptor; assay: Inhibition of ALK
# [32] = system: Receptor-type tyrosine-protein kinase FLT3 (Homo sapiens), P36888 [N841I]; assay: Inhibition of FLT3 N841I mutant at 1 uM
# [33] = Volume of distribution in SCID mouse at 1 mg/kg, iv; format: ADME, organism-based; set-up: dose 1 mg/kg, route intravenous; settings: in vivo
# [34] = Antitumor activity against ALK-positive human SUP-M2 cells xenografted in SCID mouse assessed as partial tumor regression at 30 mg/kg, po bid after 12 days; format: functional
# [35] = target: Mitogen-activated protein kinase 8 (Homo sapiens) (UniProt P45983); assay: Inhibition of JNK1 at 1 uM
# [36] = Plasma concentration in SCID mouse xenografted with ALK-positive human SUP-M2 cells at 10 mg/kg, po bid for 12 days; format: ADME, organism-based; set-up: dose 10 mg/kg, route oral
# [37] = target: T1, ALK tyrosine kinase receptor; settings: 1 uM
# Target sequence in this assay (Q9UM73 19-1620 limits assumed): as above
# Description: Inhibition of ALK at 1 uM
# [38] = Half life in beagle dog at 10 mg/kg, po; format: ADME, organism-based, Canis lupus familiaris; set-up: dose 10 mg/kg, route oral; settings: in vivo
# [39] = system: Mast/stem cell growth factor receptor Kit (Homo sapiens), P10721 [D816V]; assay: Inhibition of KIT D816V mutant at 1 uM
# KARPAS-299 = assay: Growth inhibition of ALK-positive human KARPAS299 cells by MTS assay; format: functional, cell-based
# [40] = target: Leukocyte tyrosine kinase receptor (Homo sapiens) (UniProt P29376); assay: Inhibition of LTK at 1 uM
# [41] = target: Tyrosine-protein kinase Fer (Homo sapiens) (UniProt P16591); assay: Inhibition of FER at 1 uM
# [42] = target: Mitogen-activated protein kinase 9 (Homo sapiens) (UniProt P45984); assay: Inhibition of JNK2 at 1 uM
# [43] = target: Fibroblast growth factor receptor 4 (Homo sapiens) (UniProt P22455); assay: Inhibition of FGFR4 at 1 uM
# [44] = system: Epidermal growth factor receptor (Homo sapiens), P00533 [L858R]; assay: Inhibition of EGFR L858R mutant at 0.1 uM; format: protein assay
# [45] = system: Receptor-type tyrosine-protein kinase FLT3 (Homo sapiens), P36888 [D835H]; assay: Inhibition of FLT3 D835H mutant at 0.1 uM
# [46] = target: Non-receptor tyrosine-protein kinase TNK1 (Homo sapiens) (UniProt Q13470); assay: Inhibition of TNK1 at 0.1 uM
# [47] = target: Fibroblast growth factor receptor 4 (Homo sapiens) (UniProt P22455); assay: Inhibition of FGFR4 at 0.1 uM
# [48] = target: Serine/threonine-protein kinase ULK3 (Homo sapiens) (UniProt Q6PHR2); assay: Inhibition of ULK3 at 0.1 uM
# Mus musculus [49] = assay: Toxicity in SCID mouse xenografted with human SUP-M2 cells at 55 mg/kg, po BID for 12 days; format: organism-based; set-up: dose 55 mg/kg, route oral; settings: in vivo, 288 h
# Chain of Serine/threonine-protein kinase 3 (Homo sapiens) (Q13188 whole entry): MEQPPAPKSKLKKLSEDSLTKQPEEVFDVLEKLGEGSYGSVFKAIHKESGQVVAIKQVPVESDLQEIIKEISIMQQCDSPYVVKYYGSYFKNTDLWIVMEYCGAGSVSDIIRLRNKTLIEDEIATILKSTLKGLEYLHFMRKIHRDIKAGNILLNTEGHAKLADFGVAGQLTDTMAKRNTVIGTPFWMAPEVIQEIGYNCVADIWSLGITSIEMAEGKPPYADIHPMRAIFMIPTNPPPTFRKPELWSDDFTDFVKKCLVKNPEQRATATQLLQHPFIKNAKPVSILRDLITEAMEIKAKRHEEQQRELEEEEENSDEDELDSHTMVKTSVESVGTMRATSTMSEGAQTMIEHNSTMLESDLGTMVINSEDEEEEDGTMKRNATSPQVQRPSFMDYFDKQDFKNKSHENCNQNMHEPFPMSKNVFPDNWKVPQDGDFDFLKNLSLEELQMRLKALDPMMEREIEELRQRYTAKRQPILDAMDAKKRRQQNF
# Chain of Fibroblast growth factor receptor 4 (Homo sapiens) (P22455 22-802 limits assumed): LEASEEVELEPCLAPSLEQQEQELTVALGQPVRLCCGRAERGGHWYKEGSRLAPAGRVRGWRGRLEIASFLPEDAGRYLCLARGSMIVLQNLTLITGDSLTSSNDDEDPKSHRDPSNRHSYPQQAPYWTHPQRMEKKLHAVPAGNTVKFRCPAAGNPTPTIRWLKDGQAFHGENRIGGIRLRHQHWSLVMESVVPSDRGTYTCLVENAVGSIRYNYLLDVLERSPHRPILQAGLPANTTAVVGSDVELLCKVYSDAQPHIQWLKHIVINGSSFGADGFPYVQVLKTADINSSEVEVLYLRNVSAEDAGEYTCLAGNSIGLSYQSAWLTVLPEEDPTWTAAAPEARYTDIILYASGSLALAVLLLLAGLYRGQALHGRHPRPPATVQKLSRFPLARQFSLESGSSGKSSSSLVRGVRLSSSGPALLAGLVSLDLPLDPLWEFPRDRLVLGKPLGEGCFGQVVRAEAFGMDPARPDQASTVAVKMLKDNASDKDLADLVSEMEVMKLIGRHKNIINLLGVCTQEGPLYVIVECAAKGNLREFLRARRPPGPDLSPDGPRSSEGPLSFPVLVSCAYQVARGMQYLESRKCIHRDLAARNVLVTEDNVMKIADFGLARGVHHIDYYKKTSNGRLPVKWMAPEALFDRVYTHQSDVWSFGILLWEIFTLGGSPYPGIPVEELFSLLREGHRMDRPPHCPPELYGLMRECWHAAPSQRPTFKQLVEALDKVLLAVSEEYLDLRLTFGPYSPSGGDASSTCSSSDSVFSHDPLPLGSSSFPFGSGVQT
# Chain of Platelet-derived growth factor receptor beta (Homo sapiens) (P09619 whole entry): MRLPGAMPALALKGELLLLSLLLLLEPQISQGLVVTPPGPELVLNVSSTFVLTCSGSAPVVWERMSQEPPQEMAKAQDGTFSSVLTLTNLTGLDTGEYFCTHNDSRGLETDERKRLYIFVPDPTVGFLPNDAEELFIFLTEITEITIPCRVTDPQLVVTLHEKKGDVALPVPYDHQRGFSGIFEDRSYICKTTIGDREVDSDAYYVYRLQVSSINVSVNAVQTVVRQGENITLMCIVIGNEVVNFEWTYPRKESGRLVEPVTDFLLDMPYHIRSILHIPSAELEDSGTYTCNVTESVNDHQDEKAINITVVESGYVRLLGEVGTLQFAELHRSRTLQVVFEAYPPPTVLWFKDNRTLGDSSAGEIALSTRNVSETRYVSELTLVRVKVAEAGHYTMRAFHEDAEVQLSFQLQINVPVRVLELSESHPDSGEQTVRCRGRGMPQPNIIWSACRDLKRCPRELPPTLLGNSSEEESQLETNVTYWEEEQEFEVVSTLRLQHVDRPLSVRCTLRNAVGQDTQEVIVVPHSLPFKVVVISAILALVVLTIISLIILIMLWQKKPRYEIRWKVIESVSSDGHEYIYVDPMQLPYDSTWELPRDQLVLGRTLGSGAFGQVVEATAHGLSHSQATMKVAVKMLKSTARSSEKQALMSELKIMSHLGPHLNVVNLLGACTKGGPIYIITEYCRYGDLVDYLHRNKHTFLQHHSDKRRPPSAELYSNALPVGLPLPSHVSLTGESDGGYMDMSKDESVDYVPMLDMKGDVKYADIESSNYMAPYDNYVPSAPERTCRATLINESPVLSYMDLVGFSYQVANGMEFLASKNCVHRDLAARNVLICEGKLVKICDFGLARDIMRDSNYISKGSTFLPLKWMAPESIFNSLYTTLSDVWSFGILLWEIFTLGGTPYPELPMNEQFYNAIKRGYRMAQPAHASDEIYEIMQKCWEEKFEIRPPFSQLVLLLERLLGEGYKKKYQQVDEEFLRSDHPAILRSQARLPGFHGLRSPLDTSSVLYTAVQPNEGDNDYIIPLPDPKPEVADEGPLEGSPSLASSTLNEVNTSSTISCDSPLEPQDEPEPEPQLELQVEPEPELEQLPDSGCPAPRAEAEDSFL
# Chain of Mitogen-activated protein kinase 8 (Homo sapiens) (P45983 whole entry): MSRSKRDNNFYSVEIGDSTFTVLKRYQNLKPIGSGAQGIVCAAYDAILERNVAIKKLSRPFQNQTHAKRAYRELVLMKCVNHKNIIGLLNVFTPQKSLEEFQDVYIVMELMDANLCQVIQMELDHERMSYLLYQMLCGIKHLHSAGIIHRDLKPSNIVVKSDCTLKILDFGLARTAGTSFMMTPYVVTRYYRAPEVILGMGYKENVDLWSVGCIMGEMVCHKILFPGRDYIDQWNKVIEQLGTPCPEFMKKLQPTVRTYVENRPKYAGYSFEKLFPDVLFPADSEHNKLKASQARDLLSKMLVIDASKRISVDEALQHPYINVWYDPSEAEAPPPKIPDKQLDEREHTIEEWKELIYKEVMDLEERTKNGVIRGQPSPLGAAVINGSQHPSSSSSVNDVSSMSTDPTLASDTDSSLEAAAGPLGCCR
# Chain of Serine/threonine-protein kinase 32B (Homo sapiens) (Q9NY57 whole entry): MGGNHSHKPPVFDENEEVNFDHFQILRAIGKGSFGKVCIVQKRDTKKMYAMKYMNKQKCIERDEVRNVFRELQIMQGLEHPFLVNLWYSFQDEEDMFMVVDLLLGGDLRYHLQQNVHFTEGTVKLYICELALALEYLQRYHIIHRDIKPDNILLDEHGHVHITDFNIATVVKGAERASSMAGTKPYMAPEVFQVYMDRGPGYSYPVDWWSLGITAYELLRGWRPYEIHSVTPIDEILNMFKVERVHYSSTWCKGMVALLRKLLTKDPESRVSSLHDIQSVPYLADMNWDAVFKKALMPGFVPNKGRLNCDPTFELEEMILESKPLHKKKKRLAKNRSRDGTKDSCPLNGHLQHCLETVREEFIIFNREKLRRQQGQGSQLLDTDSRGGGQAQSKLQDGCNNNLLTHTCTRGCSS
smiles,measurement,setting,value
CCN1C(=O)CCCc2c1ccc(Nc1ncc(Cl)c(N[C@H]3[C@@H](C(N)=O)[C@@H]4C=C[C@H]3C4)n1)c2OC,EC50,[1],200 nM
same,concentration at 288 h,[2],3700 ng/mL
same,inhibition,[3],88%
same,inhibition,[4],98%
same,AUC,[5],446 ng·h/mL
same,Activity,Mus musculus [6],Non-toxic
same,clearance,[7],37 mL/min/kg
same,inhibition,[8],92%
same,inhibition,[9],< 50%
same,inhibition,[10],< 50%
same,inhibition,[11],96%
same,Activity,Mus musculus [12],Non-toxic
same,inhibition,[13],< 50%
same,half-life,[14],18 min
same,inhibition,[15],< 50%
same,Activity,K562,inactive
same,concentration at 288 h,[16],1500 ng/mL
same,inhibition,[17],84%
same,IC50,Insulin receptor,597 nM
same,CL,Canis familiaris,58%
same,Tmax,[18],66 min
same,inhibition,[19],66%
same,concentration at 288 h,[20],1180 ng/g
same,inhibition,[21],91%
same,inhibition,[22],< 50%
same,inhibition,[23],81%
same,inhibition,[24],92%
same,Vd,[25],2.1 L/kg
same,Vd,[26],0.9 L/kg
same,inhibition,[27],< 50%
same,inhibition,[28],68%
same,Tmax,[29],15 min
same,IC50,[30],45 nM
same,IC50,[31],14 nM
same,inhibition,[32],95%
same,Vd,[33],0.9 L/kg
same,Activity,[34],100%
same,inhibition,[35],100%
same,concentration at 288 h,[36],337 ng/mL
same,inhibition,[37],97%
same,half-life,[38],96 min
same,inhibition,[39],99%
same,EC50,KARPAS-299,200 nM
same,inhibition,[40],98%
same,inhibition,[41],100%
same,inhibition,[42],92%
same,inhibition,[43],98%
same,inhibition,[44],< 50%
same,inhibition,[45],85%
same,inhibition,[46],93%
same,inhibition,[47],< 50%
same,inhibition,[48],< 50%
same,Activity,Mus musculus [49],Non-toxic
